Measurements as given in US11344510B2, “Arylcyclohexylamine derivatives and their use in the treatment of psychiatric disorders” (Gilgamesh Pharmaceuticals, Inc., priority 2019, dated 2022).
Entries after “also recorded” stand apart in the source; their conditions may differ. Where two headings read alike, the source gives them in different places.

Key:
MK-801 site of NMDAR = MK-801 site of NMDAR (Rattus norvegicus, UniProt P35439); conditions: read-out: NMDAR Ki ± SEM, from Ebert et al. 1997; cited from earlier work
CSDS-susceptible mice = test: Behavioral tests after chronic social defeat stress (CSDS); assay type: in vivo, C57BL/6 mice; conditions: 10 mg/kg i.p., single dose
[1] = HLM stability (Low Activity); assay type: in vitro ADME; conditions: both sexes, human, liver microsomes, pH 7.4, Condition 1 (Low Activity), 0.42 mg protein/mL
Experimental: For some of the compounds, stability was tested under two microsomal incubation conditions, one with normal enzymatic activity (low activity) and one with higher enzymatic loading, longer incubation time, and lower compound concentration (high activity) intended to increase metabolic lability.
HLM Stability (Low Activity). Pooled HLM from adult male and female donors (XenoTech H0630) were used. Microsomal incubations were carried out in 96-well plates in 5 aliquots of 40 μL, each (one for each time point). Liver microsomal incubation medium consisted of PBS (100 mM, pH 7.4), MgCl2 (3.3 mM), NADPH (3 mM), glucose-6-phosphate (5.3 mM), and glucose-6-phosphate dehydrogenase (0.67 units/mL), with 0.42 mg of liver microsomal protein per mL. Control incubations were performed by replacing the NADPH-cofactor system with PBS. Test compounds (2 μM, final solvent concentration 1.6%) were incubated with microsomes at 37° C., shaking at 100 rpm. Incubations were performed in duplicate. Five time points over 40 minutes were analyzed. The reactions were stopped by adding 12 volumes of 90% acetonitrile-water to incubation aliquots, followed by protein sedimentation by centrifugation at 5500 rpm for 3 minutes. Supernatants were analyzed for parent compound remaining using a fit-for-purpose liquid chromatography-tandem mass spectrometry (LC-MS/MS) method, with authentic samples of each analyte used for identity confirmation.
Data Analysis. The elimination constant (kel), half-life (t1/2) and intrinsic clearance (Clint) were determined in a plot of […] versus time, using linear regression analysis.

[2] = HLM stability (High Activity); assay type: in vitro ADME; conditions: both sexes, human, liver microsomes, pH 7.4, Condition 2 (High Activity), 1.0 mg protein/mL
Method in brief: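 Pooled male and female human liver microsomes, 1.0 mg protein/mL, in 100 mM PBS pH 7.4 with NADPH-regenerating system; compound 1 μM at 37° C, five time points over 60 min. Parent remaining by LC-MS/MS; kel, t1/2 and Clint from linear regression of ln(AUC) versus time.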

[3] = target: MK-801 binding site of the N-methyl-D-aspartate receptor (NMDAR); test: NMDAR radioligand binding with [3H]MK-801, Method A; design: species or system Wistar rat; conditions: MK-801 site, Method A, Wistar rat brain (minus cerebellum), 5.0 nM [3H]MK-801; read-out: NMDAR Ki ± SEM
Experimental: Radioligand Binding—Method A. Affinity of the test compounds for NMDAR was determined in radioligand binding experiments with [^3H]MK-801 by Eurofins Panlabs, Inc., using methods adapted from the literature (Javitt et al. 1987; Reynolds et al. 1989) and under the conditions described in Table 12.

mice (forced swim test) = test: Forced swim test in mice, 30-minute pre-treatment; assay type: in vivo, Swiss Webster mice; conditions: s.c., 30 minutes before test, relative to vehicle
Experimental: Animals. Male Swiss Webster mice, aged 4-5 weeks (body weight 25-30 g, Envigo) were used in the experiments Animals were housed in groups of 4-5 under controlled temperatures and 12-hour light/dark cycles, with ad libitum food (Teklad 7001 rodent diet) and water. These studies were carried out in strict accordance with the recommendations in the Guide for the Care and Use of Laboratory Animals of the National Institutes of Health. All efforts were made to minimize suffering.
Drugs and Drug Administration. Imipramine hydrochloride was administered intraperitoneally (i.p.) at a dose of 30 mg/kg. Other compounds were tested as the racemates (indicated by “rac” nomenclature) and were administered subcutaneously (s.c.) as the hydrochloride salts. Normal saline was used as the vehicle and all compounds were administered at a volume of 10 mL/kg, 30 minutes before behavioral testing.
Forced Swim Test (FST). Group size was n=10 per treatment Animals were acclimated to the testing room 30 minutes prior to behavioral testing. Mice were placed individually in a cylinder of water measuring 5 inches wide by 10 inches tall and maintained at 24-25° C. The activity of each mouse was recorded for 6 minutes using Noldus Ethovision tracking software, with periods of inactivity being automatically quantified.
Statistical Analysis. The data points shown are the mean±standard error of the mean (SEM). Analysis was performed using GraphPad Prism 6. Indicated statistical comparisons represent the results of unpaired, two-tailed t tests relative to vehicle (not corrected for multiple comparisons).

[4] = Oral bioavailability in mice, Method A; assay type: in vivo; conditions: CD-1 mice; for F: 10 mg/kg; for half-life / Cmax / AUC(0-inf): male, mouse
Experimental: Animals. Male CD-1 mice were used in these studies Animals were randomly assigned to treatment groups and were fasted for 4 h before dosing.
Drugs. Test compounds were dissolved in normal saline (ketamine) or de-ionized water (other compounds) and administered intravenously (iv) or orally (po) at a dose of 10 mg/kg (calculated based on freebase) and at a volume of 5 mL/kg body weight. Compounds were tested as the racemates (indicated by “rac” nomenclature) or pure enantiomers (indicated by “R” or “S” nomenclature).
Sample Collection and Bioanalysis. Blood samples were collected under 2,2,2-tribromoethanol anesthesia (150 mg/kg, ip) from the orbital sinus at 0.083, 0.25, 0.5, 1, 2, 4, 8 and 24 h (4 animals per time point) into microcontainers containing K2EDTA Immediately after collection of blood, mice were euthanized by cervical dislocation and brain samples were collected at the same time points. All samples were immediately processed, flash-frozen, and stored at −70° C. until subsequent analysis. Plasma samples were separated by centrifugation of whole blood and aliquots (50 μL) were mixed with 200 μL of internal standard solution (400 ng/mL in 1:1 v/v CH3CN:MeOH). After mixing by pipetting and centrifuging for 4 min at 6000 rpm, 0.5 μL of each supernatant was analyzed for drug using a fit-for-purpose liquid chromatography-tandem mass spectrometry (LC-MS/MS) method, with authentic samples of each analyte used for calibration and identification. Brain samples (weight 100 mg±1 mg) were dispersed in 500 μL, of internal standard solution (400 ng/mL in 4:1 v/v MeOH:water) using zirconium oxide beads (115 mg±5 mg) in The Bullet Blender® homogenizer for 30 s at speed 8. After homogenization, the samples were centrifuged for 4 min at 14,000 rpm and 0.5 μL of each supernatant was analyzed for drug using a fit-for-purpose LC-MS/MS method, with authentic samples of each analyte used for calibration and identification.
Data Analysis. The drug concentrations of samples below the lower limit of quantitation (LLOQ) were designated as zero. Pharmacokinetic data analysis was performed using noncompartmental, bolus injection or extravascular input analysis models in WinNonlin 5.2 (PharSight). Data points below LLOQ were presented as missing to improve validity of t112 calculations.

[5] = calculated based on brain exposure
[6] = brain, 10 mg/kg iv, read-out: t1/2 (iv)
[7] = brain, 10 mg/kg po, read-out: t1/2 (po)
[8] = plasma, 10 mg/kg iv, read-out: AUC0-inf (iv) (converted)
[9] = plasma, 10 mg/kg iv, read-out: t1/2 (iv)
[10] = plasma, 10 mg/kg po, read-out: AUC0-inf (po) (converted)
[11] = plasma, 10 mg/kg po, read-out: t1/2 (po)
[12] = plasma, absolute oral bioavailability

CN[C@@]1(c2ccccc2Cl)CCCCC1=O (single isomer, unassigned) [(R)-ketamine, ketamine]
Ki (MK-801 site of NMDAR): 1.4 ± 0.1 µM

CNC1(c2ccccc2F)CCCCC1=O (racemic) [Compound 35rac, 2-(2-Fluorophenyl)-2-(methylamino)cyclohexan-1-one]
antidepressant-like activity in behavioral tests after CSDS (TST, FST, SPT) (CSDS-susceptible mice): superior to 37rac; also recorded: reversed the pro-depressive effects
half-life at 2 μM [1]: 2.85 h
microsomal CLint at 2 μM [1]: 10 µL/min/mg
half-life at 1 μM [2]: 148 min
microsomal CLint at 1 μM [2]: 5 µL/min/mg
Ki [3]: 1.82 µM
immobility time in FST (mice (forced swim test)): did not have effects
AUC0-inf (iv) ([4]; brain, 10 mg/kg iv): 186,000 ng*min/g
AUC0-inf (po) ([4]; brain, 10 mg/kg po): 34,200 ng*min/g
F [4, 5]: 18%
half-life [4, 6]: 16.1 min
Cmax ([4]; brain, 10 mg/kg po): 1840 ng/g
half-life [4, 7]: 19.1 min
AUC(0-inf) [4, 8]: 1300 ng·h/mL
half-life [4, 9]: 15.1 min
Cmax ([4]; plasma, 10 mg/kg po): 618 ng/mL
AUC(0-inf) [4, 10]: 363 ng·h/mL
half-life [4, 11]: 19.7 min
F [4, 12]: 28%

CNC1(c2ccccc2OC)CCCCC1=O (racemic) [Compound 4rac]
half-life at 2 μM [1]: 43.2 h
microsomal CLint at 2 μM [1]: 1 µL/min/mg
half-life at 1 μM [2]: 819 min
microsomal CLint at 1 μM [2]: 1 µL/min/mg
Ki [3]: 35 µM
immobility time in FST (mice (forced swim test)): did not have effects
AUC0-inf (iv) ([4]; brain, 10 mg/kg iv): 292,000 ng*min/g
AUC0-inf (po) ([4]; brain, 10 mg/kg po): 135,000 ng*min/g
F [4, 5]: 46%
half-life [4, 6]: 19.9 min
Cmax ([4]; brain, 10 mg/kg po): 1900 ng/g
half-life [4, 7]: 45.9 min
AUC(0-inf) [4, 8]: 1650 ng·h/mL
half-life [4, 9]: 20.6 min
Cmax ([4]; plasma, 10 mg/kg po): 958 ng/mL
AUC(0-inf) [4, 10]: 850 ng·h/mL
half-life [4, 11]: 42.6 min
F [4, 12]: 51%

CN[C@]1(c2ccccc2Cl)CCCCC1=O (single isomer, unassigned) [(S)-ketamine, ketamine]
Ki (MK-801 site of NMDAR): 0.3 ± 0.013 µM

CCNC1(c2cccc(OC)c2)CCCCC1=O (racemic) [Compound 2rac]
half-life at 2 μM [1]: 4.85 h
microsomal CLint at 2 μM [1]: 6 µL/min/mg
half-life at 1 μM [2]: 199 min
microsomal CLint at 1 μM [2]: 3 µL/min/mg
immobility time in FST (mice (forced swim test)): reduced time immobile; also recorded: induced antidepressant-like effects
AUC0-inf (iv) ([4]; brain, 10 mg/kg iv): 279,000 ng*min/g
AUC0-inf (po) ([4]; brain, 10 mg/kg po): 11,800 ng*min/g
F [4, 5]: 4%
half-life [4, 6]: 16.1 min
Cmax ([4]; brain, 10 mg/kg po): 420 ng/g
half-life [4, 7]: 16.6 min
AUC(0-inf) [4, 8]: 1100 ng·h/mL
half-life [4, 9]: 17.9 min
Cmax ([4]; plasma, 10 mg/kg po): 135 ng/mL
AUC(0-inf) [4, 10]: 62.8 ng·h/mL
half-life [4, 11]: 14 min
F [4, 12]: 6%
